Reference: US9868705B2, “Tetra-aryl cyclobutane inhibitors of androgen receptor action for the treatment of hormone refractory cancer” (The Board of Trustees of the University of Illinois, priority 2013, dated 2018)
Changes are numbered by the printed parent chain. Like-named read-outs stand apart in the source and are kept apart here.

What was measured:
W741C AR = target: T1, W741C AR (Homo sapiens, UniProt P10275, W742C); assay: MMTV-luciferase transcription assay in CV-1 cells, W741C AR
T1 sequence (P10275 1-920 W742C): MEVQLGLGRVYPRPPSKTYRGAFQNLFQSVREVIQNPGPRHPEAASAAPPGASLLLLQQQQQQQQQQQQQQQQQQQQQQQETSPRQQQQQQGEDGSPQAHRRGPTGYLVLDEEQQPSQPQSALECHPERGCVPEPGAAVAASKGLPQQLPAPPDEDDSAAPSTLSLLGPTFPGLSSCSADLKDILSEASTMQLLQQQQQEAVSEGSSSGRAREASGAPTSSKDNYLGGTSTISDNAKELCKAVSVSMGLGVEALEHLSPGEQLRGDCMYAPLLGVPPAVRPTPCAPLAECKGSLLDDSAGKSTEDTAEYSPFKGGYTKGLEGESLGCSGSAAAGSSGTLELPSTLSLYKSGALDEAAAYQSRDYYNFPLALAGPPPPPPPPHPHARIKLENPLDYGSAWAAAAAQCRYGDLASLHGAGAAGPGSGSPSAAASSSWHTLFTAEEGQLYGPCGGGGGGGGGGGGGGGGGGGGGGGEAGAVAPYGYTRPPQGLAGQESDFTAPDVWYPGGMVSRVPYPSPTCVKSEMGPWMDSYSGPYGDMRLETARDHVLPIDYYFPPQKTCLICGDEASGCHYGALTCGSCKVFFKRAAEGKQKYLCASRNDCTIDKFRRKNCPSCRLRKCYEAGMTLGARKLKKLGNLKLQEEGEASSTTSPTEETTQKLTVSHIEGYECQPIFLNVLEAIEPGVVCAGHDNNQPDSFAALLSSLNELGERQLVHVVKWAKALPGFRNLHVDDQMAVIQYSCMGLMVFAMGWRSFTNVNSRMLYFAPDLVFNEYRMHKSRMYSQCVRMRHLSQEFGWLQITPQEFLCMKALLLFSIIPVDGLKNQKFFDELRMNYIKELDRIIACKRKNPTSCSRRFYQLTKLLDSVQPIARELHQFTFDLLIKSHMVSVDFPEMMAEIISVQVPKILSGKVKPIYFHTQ

T877A (LNCaP) AR = target: T2, T877A (LNCaP) AR (Homo sapiens, UniProt P10275, T878A); assay: MMTV-luciferase transcription assay in CV-1 cells, T877A AR; type: cell-based
T2 construct: expressed in transfected cells; host or cells: CV-1
T2 sequence (P10275 1-920 T878A): T1 sequence (P10275 1-920 W742C) with C742W, T878A
Excerpt: (§1) These compounds were screened using an AR-responsive MMTV transcription assay in CV-1 cells, utilizing both wild type and T877A (LNCaP) AR. […]

[1] = target: T3, T877A mutant androgen receptor (Homo sapiens, UniProt P10275, T878A); assay: FKBP51 endogenous gene expression in LNCaP-XIP cells; type: cell-based; settings: FKBP51 expression, T877A mutant receptor
T3 construct: endogenous in cells; host or cells: LNCaP-XIP
T3 sequence (P10275 1-920 T878A): T1 sequence (P10275 1-920 W742C) with C742W, T878A
Excerpt: (§2) FIG. 44 depicts data for dose-dependent inhibition of androgen receptor-dependent endogenous gene expression of FKBP51 by Compound 1 of Example IV in LNCaP cells producing exclusively T877A mutant androgen receptor (LNCaP-XIP) and LNCaP cells transfected with wild type androgen receptor (LNCaP-androgen receptor, ratio of wild type to T877A receptor is ca. 3:1).
(§3) To more fully characterize the selectivity of compound 1 for the mutant receptor, we measured its inhibitory potential against the WT and T877A mutant receptor in an AR-dependent luciferase transcription assay in CV-1 cells (FIGS. 43A and B).

[2] = system: wild type androgen receptor; assay: FKBP51 endogenous gene expression in LNCaP-AR cells (wild type AR overexpressed); type: cell-based, human; settings: at 20 M (so in the source)
Excerpt: as §2, §3

AR [3] = target: T4, AR (Homo sapiens, UniProt P10275); assay: AR relative binding affinity (RBA)
T4 sequence (P10275 1-920): T1 sequence (P10275 1-920 W742C) with C742W

AR [4] = target: T4, AR; assay: AR target gene expression in XIP-AR cells; settings: in the presence of R1881
[5] = system: LNCaP (AR-T877A) xenograft; assay: LNCaP xenograft model of prostate cancer in mice; type: in vivo
Excerpt: Our goal in this example is to identify small molecules that block activity of mutant androgen receptors (ARs) but not wild type AR, by synthesizing a library of compounds, to explore possible mechanisms of action, and to evaluate therapeutic potential. A total of 75 tetra-aryl substituted cyclobutanes (CBs) were synthesized. FIG. 18 illustrates a general reaction scheme for the synthesis of some of these compounds from the photo cycloaddition of 2,4-dichloro-6-styrylpyrimidine. FIG. 19 illustrates a general reaction scheme for the synthesis from the photo cycloaddition of 2,4-disubstituted 6-styrylpyrimidines. LNCaP cell proliferation was evaluated. LNCaP cells are a cell line of human cells commonly used in the field of oncology. LNCaP cells are androgen-sensitive human prostate adenocarcinoma cells derived from the left supraclavicular lymph node metastasis from a person in 1977. They are adherent epithelial cells growing in aggregates and as single cells. […] . FIGS. 21A, B, C, and D are graphic summaries of the results for cyclobutane compound CB-7. […] Prostate cancer was the most common tumor among men in the United States in 2012, with over 240,000 diagnoses and approximately 28,000 deaths. […] . FIG. 23 illustrates the androgen receptor ligand binding domain bound to testosterone. FIG. 24 illustrates mouse survival data from a mutant androgen receptor-T877A xenograft experiment for CB-7 at various concentrations. […] . FIGS. 25A and B provide data on AR mutant selectivity for compounds CB-1 to CB-8. […] It is seen that the cyclobutanes show selectivity of mutant androgen receptor activation in the luciferase transcriptional assay in CV-1 cells (a commercially available cell line derived from the kidney of an African green monkey). FIGS. 26 and 27A and B illustrate data from a ligand competition assay for compounds CB-1, CB-6, and CB-7.
Based on the above results, we further evaluated the effects of CB 10 in vivo. […] We also utilized a traditional in vivo model of prostate cancer, the LNCaP xenograft model.

AR [6] = target: T4, AR; assay: Chromatin immunoprecipitation of AR at androgen-response elements in XIP-AR cells
LNCaP cells = assay: LNCaP cell proliferation; settings: androgen-stimulated LNCaP cells
AR [7] = target: T4, AR; assay: Cellular location of AR by microscopy
androgen receptor = assay: Whole-cell competition binding assay using 3H-R1881; settings: whole cells; mutant AR and WT-AR
wild type AR = target: T5, wild type AR (Homo sapiens, UniProt P10275); assay: MMTV-luciferase transcription assay in CV-1 cells, wild type AR; type: cell-based; settings: CV1 transient transfection, MMTV-Luciferase reporter; read-out: IC50 WT
T5 construct: expressed in transfected cells; host or cells: CV-1
T5 sequence (P10275 1-920): T1 sequence (P10275 1-920 W742C) with C742W
Excerpt: as §1

XIP-AR cells = assay: XIP-AR cell proliferation; settings: XIP-AR overexpressing cells
[8] = LNCaP (AR-T877A) xenograft, concentrations comparable to MDV3100

## Clc1nccc([C@H]2[C@H](c3ccccc3)[C@@H](c3ccnc(Cl)n3)[C@H]2c2ccccc2)n1 [DPM-21]
W741C AR; AR-dependent luciferase transfection assay
  increase in potency for W741C AR over WT receptor: approximately 10 fold
T877A (LNCaP) AR; AR-dependent luciferase transcription assay in CV-1 cells
  increase in potency for T877A mutant over WT: approximately 100 fold
T877A (LNCaP) AR; T877A AR
  IC50 lower than 1: approximately 10 fold
T877A (LNCaP) AR; read-out: IC50 for T877A AR
  IC50: ~0.1 µM

## Cc1cc([C@H]2[C@H](c3ccccc3)[C@H](c3cc(C)nc(C)n3)[C@H]2c2ccccc2)nc(C)n1 [CB-49]
[1]
  concentration at which maximal inhibition is obtained: 6 µM
[2]
  inhibition of FKBP51 gene expression: ca. 80%
AR [3]
  AR RBA: 0.027%

## Clc1nccc([C@H]2[C@H](c3ccccc3)[C@@H](c3ccnc(Cl)n3)[C@H]2c2ccccc2)n1 [CB 10]
AR [4]
  reversal of androgen stimulated gene expression: reverse androgen stimulated gene expression similar to MDV
[5]; escalating dose 5 mpk to 100 mpk
  tumor weight at study termination: significant dose dependent inhibition of tumor growth
[5]; intact male mice bearing LNCaP xenografts, 50 mpk or 100 mpk
  tumor growth: significantly inhibited
AR [6]
  AR recruitment to androgen-response elements of PSA and NKX3.1: inhibit the recruitment
LNCaP cells
  inhibition of LNCaP cell proliferation: equally as well as MDV
AR [7]; microscopy
  cellular location of AR after treatment: AR is primarily outside of the nucleus
Androgen receptor
  competition with 3H-R1881 for binding to AR: effectively compete against R1881 binding

## C[C@]1(O)CC[C@H]2[C@@H]3CCC4=CC(=O)CCC4=C3C=C[C@@]21C [R1881, reference compound]
AR [7]
  cellular location of AR after treatment: promote nuclear translocation

## CNc1cc([C@H]2[C@H](c3ccccc3)[C@H](c3cc(NC)nc(NC)n3)[C@H]2c2ccccc2)nc(NC)n1 [CB-51]
W741C AR; CV1 transient transfection, MMTV-Luciferase reporter
  IC50 W741C: Toxic
T877A (LNCaP) AR; CV1 transient transfection, MMTV-Luciferase reporter, read-out: IC50 T877A
  IC50: > 20 µM
Wild type AR
  IC50: > 20 µM

## COc1cc(C2C(c3ccccc3)C(c3cc(OC)nc(OC)n3)C2c2ccccc2)nc(OC)n1 (stereo not drawn) [CB 1]
AR [4]
  reversal of androgen stimulated gene expression: less effective
Androgen receptor
  competition with 3H-R1881 for binding to AR: effectively compete against R1881 binding

## COc1ccc(CNc2cc([C@H]3[C@H](c4ccccc4)[C@H](c4cc(NCc5ccc(OC)cc5)nc(NCc5ccc(OC)cc5)n4)[C@H]3c3ccccc3)nc(NCc3ccc(OC)cc3)n2)cc1 [CB-7]
[5]; [8]
  survival of mice: increases survival of mice
  tumor size: decreases tumor size
Androgen receptor
  competition with 3H-R1881 for binding to AR: compete with 3H-R1881

## CC(C)(O)C(=O)Nc1ccc([N+](=O)[O-])c(C(F)(F)F)c1 [OHF, hydroxyflutamide, reference compound]
XIP-AR cells
  cell proliferation, compound alone: promote cell proliferation
